According to patent USRE49080E1, “Glycoside derivatives and uses thereof” (Novartis AG, priority 2009, dated 2022):

What was measured:
human SGLT1 = human SGLT1 (Homo sapiens (Human), UniProt P13866); test: SGLT1 assay: analogous test with hSGLT1 cDNA expressed in CHO-K1 or HEK293 cells; assay type: cell-based; conditions: n = 1-4; 14C-AMG uptake, cells expressing hSGLT1
Procedure: (§1) The SGLT-2 assay is carried out as follows: CHO-hSGLT2 cells are cultivated in Ham's F12 Medium (BioWhittaker) with 10% foetal calf serum and 250 μg/mL zeocin (Invitrogen), and HEK293-hSGLT2 cells are cultivated in DMEM medium with 10% foetal calf serum and 250 μg/mL zeocin (Invitrogen). The cells are detached from the culture flasks by washing twice with PBS and subsequently treating with trypsin/EDTA. After the addition of cell culture medium the cells are centrifuged, resuspended in culture medium and counted in a Casy cell counter. Then 40,000 cells per well are seeded into a white, 96-well plate coated with poly-D-lysine and incubated overnight at 37° C., 5% CO2. The cells are washed twice with 250 μl of assay buffer (Hanks Balanced Salt Solution, 137 mM NaCl, 5.4 mM KCl, 2.8 mM CaCl2, 1.2 mM MgSO4 and 10 mM HEPES (pH 7.4), 50 μg/mL of gentamycin). 250 μl of assay buffer and 5 μl of test compound are then added to each well and the plate is incubated for a further 15 minutes in the incubator. 5 μl of 10% DMSO are used as the negative control. The reaction is started by adding 5 μl of 14 C-AMG (0.05 μCi) to each well. After 2 hours' incubation at 37° C., 5% CO2, the cells are washed again with 250 μl of PBS […] and then lysed by the addition of 25 μl of 0.1 N NaOH (5 min. at 37° C.). 200 μl of MicroScint20 (Packard) are added to each well and incubation is continued for a further 20 min at 37° C. After this incubation the radioactivity of the 14 C-AMG absorbed is measured in a Topcount (Packard) using a 14 C scintillation program.
To determine the selectivity with respect to human SGLT1 an analogous test is set up in which the cDNA for hSGLTI (Genbank Ace. No. NM000343) instead of hSGLT2 cDNA is expressed in CHO-K1 or HEK293 cells.

[1] = target: human sodium glucose co-transporter 2 (Homo sapiens (Human), UniProt P31639); test: SGLT-2 assay: 14C-AMG uptake in CHO-hSGLT2 or HEK-hSGLT2 cells; assay type: cell-based; conditions: n = 1-4, cells stably transfected with hSGLT2, read-out: SGLT2 IC50 nM (n = 1-4)
human sodium glucose co-transporter 2, sequence (P31639 whole entry): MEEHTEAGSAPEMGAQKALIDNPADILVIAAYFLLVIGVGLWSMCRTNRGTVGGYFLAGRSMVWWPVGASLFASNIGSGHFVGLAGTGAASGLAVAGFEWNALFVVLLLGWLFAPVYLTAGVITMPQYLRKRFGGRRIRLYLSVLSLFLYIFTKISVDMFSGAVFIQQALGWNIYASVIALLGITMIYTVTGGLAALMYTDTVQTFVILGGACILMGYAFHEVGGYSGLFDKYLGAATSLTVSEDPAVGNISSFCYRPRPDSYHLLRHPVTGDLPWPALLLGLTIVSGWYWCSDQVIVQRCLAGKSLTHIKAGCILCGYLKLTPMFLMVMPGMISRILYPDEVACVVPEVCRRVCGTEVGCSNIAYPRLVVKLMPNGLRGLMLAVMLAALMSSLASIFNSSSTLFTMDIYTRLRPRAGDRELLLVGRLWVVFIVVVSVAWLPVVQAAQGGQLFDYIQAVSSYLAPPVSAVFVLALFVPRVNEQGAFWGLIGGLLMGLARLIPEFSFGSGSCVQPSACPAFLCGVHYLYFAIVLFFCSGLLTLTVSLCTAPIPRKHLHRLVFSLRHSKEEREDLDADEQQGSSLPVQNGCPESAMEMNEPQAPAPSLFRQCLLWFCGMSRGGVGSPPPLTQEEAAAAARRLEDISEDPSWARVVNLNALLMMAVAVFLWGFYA
Procedure: These cell lines transport 14 C-labelled alpha-methyl-glucopyranoside (14 C-AMG, Amersham) into the interior of the cell in sodium-dependent manner.
as §1

human SGLT1, sequence (P13866 whole entry): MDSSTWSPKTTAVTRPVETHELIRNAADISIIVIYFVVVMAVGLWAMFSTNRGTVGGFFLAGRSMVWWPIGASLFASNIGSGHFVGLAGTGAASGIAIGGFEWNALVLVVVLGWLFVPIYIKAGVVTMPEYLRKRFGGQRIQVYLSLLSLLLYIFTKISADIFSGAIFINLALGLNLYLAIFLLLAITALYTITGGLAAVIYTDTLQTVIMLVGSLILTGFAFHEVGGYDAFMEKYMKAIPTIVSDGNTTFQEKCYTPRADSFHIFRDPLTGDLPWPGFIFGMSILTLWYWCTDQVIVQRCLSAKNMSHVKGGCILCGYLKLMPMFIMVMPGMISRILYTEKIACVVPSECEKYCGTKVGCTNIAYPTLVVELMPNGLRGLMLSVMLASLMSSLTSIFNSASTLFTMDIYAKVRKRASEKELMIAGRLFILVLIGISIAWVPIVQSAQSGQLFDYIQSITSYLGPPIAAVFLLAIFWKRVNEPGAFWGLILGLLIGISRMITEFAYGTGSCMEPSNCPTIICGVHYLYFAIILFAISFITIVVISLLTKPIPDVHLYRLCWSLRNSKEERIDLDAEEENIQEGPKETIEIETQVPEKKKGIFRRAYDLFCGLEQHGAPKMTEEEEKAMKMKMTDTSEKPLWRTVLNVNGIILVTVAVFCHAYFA

| Structure (SMILES) | IC50 (human SGLT1) | IC50 [1] |
| --- | --- | --- |
| OC[C@H]1O[C@@H](c2ccc(Cl)c(Cc3ccc4c(c3)NCCO4)c2)[C@H](O)[C@@H](O)[C@@H]1O [Example 8, (2S,3R,4R,5S,6R)-2-[4-Chloro-3-(3,4-dihydro-2H-benzo[1,4]oxazin-6-ylmethyl)-phenyl]-6-hydroxymethyl-tetrahydro-pyran-3,4,5-triol] | 725 nM | 0.25 nM |
| COc1ccc([C@@H]2O[C@H](CO)[C@@H](O)[C@H](O)[C@H]2O)cc1Cc1ccc2c(c1)NCCO2 [Example 31, (2S,3R,4R,5S,6R)-2-[3-(3,4-Dihydro-2H-benzo[1,4]oxazin-6-ylmethyl)-4-methoxy-phenyl]-6-hydroxymethyl-tetrahydro-pyran-3,4,5-triol] | 404 nM | 1.2 nM |
| OC[C@H]1O[C@@H](c2ccc(Cl)c(Cc3ccc4c(c3)CCN4)c2)[C@H](O)[C@@H](O)[C@@H]1O [Example 17, (2S,3R,4R,5S,6R)-2-[4-Chloro-3-(2,3-dihydro-1H-indol-5-ylmethyl)-phenyl]-6-hydroxymethyl-tetrahydro-pyran-3,4,5-triol] | 480 nM | 0.8 nM |
| CC(C)c1ccc([C@@H]2O[C@H](CO)[C@@H](O)[C@H](O)[C@H]2O)cc1Cc1ccc2c(c1)NCCC2 [Example 71, (2R,3S,4R,5R,6S)-2-Hydroxymethyl-6-[4-isopropyl-3-(1,2,3,4-tetrahydro-quinolin-7-ylmethyl)-phenyl]-tetrahydro-pyran-3,4,5-triol] | 19 nM | 1.5 nM |
| OC[C@H]1O[C@@H](c2ccc(F)c(Cc3ccc4c(c3)NCCO4)c2)[C@H](O)[C@@H](O)[C@@H]1O [Example 24, (2S,3R,4R,5S,6R)-2-[3-(3,4-Dihydro-2H-benzo[1,4]oxazin-6-ylmethyl)-4-fluoro-phenyl]-6-hydroxymethyl-tetrahydro-pyran-3,4,5-triol] | 31000 nM | 1.3 nM |
| CC1(C)CNc2cc(Cc3cc([C@@H]4O[C@H](CO)[C@@H](O)[C@H](O)[C@H]4O)ccc3Cl)ccc2O1 [Example 20, (2S,3R,4R,5S,6R)-2-[4-Chloro-3-(2,2-dimethyl-3,4-dihydro-2H-benzo[1,4]oxazin-6-ylmethyl)-phenyl]-6-hydroxymethyl-tetrahydro-pyran-3,4,5-triol] | > 3700 nM | 0.55 nM |
| OC[C@H]1O[C@@H](c2ccc(Cl)c(Cc3ccc4c(c3)NCCC4)c2)[C@H](O)[C@@H](O)[C@@H]1O [Example 16, (2S,3R,4R,5S,6R)-2-[4-Chloro-3-(1,2,3,4-tetrahydro-quinolin-7-ylmethyl)-phenyl]-6-hydroxymethyl-tetrahydro-pyran-3,4,5-triol] | 750 nM | 0.15 nM |
| COc1ccc(CN2CCCc3cc(Cc4cc([C@@H]5O[C@H](CO)[C@@H](O)[C@H](O)[C@H]5O)ccc4Cl)ccc32)cc1 [Example 14, (2S,3R,4R,5S,6R)-2-{4-Chloro-3-[1-(4-methoxy-benzyl)-1,2,3,4-tetrahydro-quinolin-6-ylmethyl]-phenyl}-6-hydroxymethyl-tetrahydro-pyran-3,4,5-triol] | 800 nM | 5.5 nM |
| CCc1ccc([C@@H]2O[C@H](CO)[C@@H](O)[C@H](O)[C@H]2O)cc1Cc1ccc2c(c1)NCCO2 [Example 66, (2S,3R,4R,5S,6R)-2-[3-(3,4-Dihydro-2H-benzo[1,4]oxazin-6-ylmethyl)-4-ethyl-phenyl]-6-hydroxymethyl-tetrahydro-pyran-3,4,5-triol] | 100 nM | 0.9 nM |
